Source: US11584763B2, “Chromenopyridine derivatives as phosphatidylinositol phosphate kinase inhibitors” (HIBERCELL, INC., priority 2017, dated 2023)

Tests used:
PIP4K 2A = target: T1, PIP4K 2A (Homo sapiens, UniProt P48426); assay: ADP-glo kinase assay PIP4K 2A; type: biochemical; parameters: 4 nM PIP4K2A (full length protein, SignalChem); purchased SignalChem; settings: compounds listed under IC50 bin headings
T1 sequence (P48426 1-406): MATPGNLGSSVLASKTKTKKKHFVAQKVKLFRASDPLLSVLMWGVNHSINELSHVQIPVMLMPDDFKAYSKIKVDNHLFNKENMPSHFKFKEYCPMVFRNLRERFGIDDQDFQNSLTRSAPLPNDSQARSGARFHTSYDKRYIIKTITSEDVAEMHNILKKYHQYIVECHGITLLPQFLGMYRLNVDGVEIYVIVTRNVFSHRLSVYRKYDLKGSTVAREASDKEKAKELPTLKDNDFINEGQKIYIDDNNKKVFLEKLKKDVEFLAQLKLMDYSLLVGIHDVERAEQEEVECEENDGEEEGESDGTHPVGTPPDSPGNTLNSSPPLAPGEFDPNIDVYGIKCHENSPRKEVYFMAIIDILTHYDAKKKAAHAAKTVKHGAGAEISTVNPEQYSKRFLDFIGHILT
Description: Dilution series of the compounds were prepared in DMSO at 100 times the final assay concentration (n1=n0/3 in 10 points). The compounds were further diluted to three times the assay concentration in assay buffer (20 mM MOPS pH 7.2, 25 mM magnesium chloride, 0.005% Tween 20). 6 μL of the diluted compounds were added to a 384 well assay plate followed by 9 μL of a mix consisting of 4 nM PIP4K2A (full length protein, SignalChem) and 100 μM PI(5)P diC8 (Tebu-Bio). Enzyme and compounds were pre-incubated at room temperature for 15 minutes.
Then 3 μL of a solution containing 60 μM ATP (Promega) in assay buffer was added to the wells containing compound and enzyme and mixing was performed by pipetting several times. The reaction was incubated at room temperature for 1 h. Then 18 μL of ADP-Glo™ Reagent (Promega) was added to stop the kinase reaction and deplete the unconsumed ATP, mixing was performed by pipetting several times. The plate was incubated at room temperature for 40 minutes before addition of 36 μL of Kinase Detection Reagent (Promega) to convert ADP to ATP and introduce luciferase and luciferin to detect ATP. The reaction was incubated at room temperature for 40 minutes before the luminescence was measured in a in a Victor 3V 1420 multilabel counter (Perkin Elmer).
Percent inhibition of the compounds as compared to dimethyl sulfoxide treated control samples was calculated. Compound concentration versus percent inhibition were fitted to generate IC50 values.

PIP4K2B = target: T2, PIP4K2B (Homo sapiens, UniProt P78356); assay: Trans-FI P kinase assay PIP4K2B (PIP4KtypeIIB inhibition assay); type: biochemical; settings: compounds listed under IC50 bin headings; 100 uM GTP; read-out: Trans-FI P kinase assays: PIP4K2B IC50
T2 construct: made in house; host or cells: E. coli
T2 sequence (P78356 1-416): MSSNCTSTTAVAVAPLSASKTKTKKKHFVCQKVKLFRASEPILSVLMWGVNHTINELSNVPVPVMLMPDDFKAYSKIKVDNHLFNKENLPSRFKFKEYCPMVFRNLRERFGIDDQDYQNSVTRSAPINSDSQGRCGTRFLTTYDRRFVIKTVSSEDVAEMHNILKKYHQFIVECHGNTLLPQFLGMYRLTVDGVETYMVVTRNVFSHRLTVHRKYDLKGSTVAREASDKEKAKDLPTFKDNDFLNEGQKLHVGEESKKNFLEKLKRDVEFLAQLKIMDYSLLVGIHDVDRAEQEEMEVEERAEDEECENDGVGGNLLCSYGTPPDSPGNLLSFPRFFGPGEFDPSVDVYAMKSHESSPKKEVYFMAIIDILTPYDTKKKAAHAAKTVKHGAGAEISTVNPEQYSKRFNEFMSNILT
Description: GST tagged PIP4KtypeIIA and B enzymes were overexpressed in E. Coli and purified to >80% homogeneity. Phosphatidyl inositol-5-phosphate (PI5P, Cat. #850152, Avanti Polar Lipids Inc.) was used as the lipid substrate and phosphatidyl ethanolamine (DOPE 18:1, Cat. #850725, Avanti Polar Lipids Inc.) was used as the carrier lipid for assays. Ultrapure ATP and GTP was purchased from Bellbrooke Labs. ADP Glo reagents were obtained from Promega. Transcreener FI reagent was obtained from Bellbrooke labs.
GST-tagged PIP4KtypeIIB (3.4 uL, 2.77 mg/mL) was diluted to 5 mL using HNE buffer to yield 5× enzyme stock (25 nM)
Lipid Preparation: In a 10 mL pyrex glass vial, 1 ug of PI5P and 1 ug of DOPE were suspended in 2.5 mL of HEPES buffer mix and 2.5 mL of H:E buffer. The contents were mixed and sonicated for 3 min to yield a translucent lipid stock.
Compound Preparation: Compounds were stored as 5 mM stocks in neat DMSO as room temperature in glass vials. 5 mM stocks were diluted to 2 mM and then serially diluted (3×) in neat DMSO in 96 well polypropylene plates. From the serially diluted stocks, 3 uL was delivered into 250 uL of 25% DMSO (in water) to generate 5× compound stocks. Typically, the highest compound conc. was 24 uM.
The assay volume was kept at 25 uL. To each well of the reaction plate, 10 uL of lipid stock (1:1 ratio PI5P:DOPE) was delivered. This was followed by the addition of 5 uL of compound in 25% DMSO. Then, to each well, 5 uL of 25 nM (5×) typeIIB enzyme was delivered. The contents were mixed well and incubated for 1 h at 27 C. After 1 h, reaction was initiated by adding 5 uL of 500 uM GTP and the contents were mixed well with a multi-channel pipetteman. The final concentration of the reagents are as follows: 50 mM HEPES, pH 7.3, 10 mM MgCl2, 20 mM NaCl, 0.01% v/v triton-X100, 5% DMSO, 100 uM GTP, 80 uM (2 ug) PI5P, 2 ug DOPE, and 5 nM PIP4KIIB Typically, the highest conc. of compounds was 4.8 uM and the lowest conc. was 0.
After 2 h, the reaction was quenched by adding 25 uL of transcreener FI reagent. The contents were incubated at RT for 1 h and the Fluorescence (Ex: 584 Em: 623) was read using Molecular Devices Paradigm plate reader. […] The blanks were averaged and subtracted from all other wells. Using a calibration curve, RFU was converted to uM GDP (product). IC50 was calculated by plotting the residual activity (expressed as % No inhibitor control) vs. log [Inh. conc.]

IC50 (PIP4K 2A) [nM] | IC50 (PIP4K2B) [nM] | SMILES
1 to 10 | 10 to 100 | O=C1CCCN1c1ccc2c(c1)OCc1cc(Nc3cnc4c(c3)OCCO4)ncc1-2 [Example 163, 1-(3-((2,3-dihydro-[1,4]dioxino[2,3-b]pyridin-7-yl)amino)-5H-chromeno[4,3-c]pyridin-8-yl)pyrrolidin-2-one]
1 to 10 | 1 to 10 | CC1Oc2cc(N3CCCC3=O)c(F)cc2-c2cnc(Nc3cnc4c(c3)N3C(=O)CC[C@@H]3CO4)cc21 (stereo partly drawn) [Example 181, (6aR)-2-((9-fluoro-5-methyl-8-(2-oxopyrrolidin-1-yl)-5H-chromeno[4,3-c]pyridin-3-yl)amino)-6,6a,7,8-tetrahydro-9H-pyrido[2,3-b]pyrrolo[1,2-d][1,4]oxazin-9-one]
≤ 1 | 1 to 10 | CC1Oc2cc(N3CCCC3=O)ccc2-c2cnc(Nc3cncc(NC(=O)c4cccc5nccn45)c3)cc21 (centres unmarked) [Example 146, N-(5-((5-methyl-8-(2-oxopyrrolidin-1-yl)-5H-chromeno[4,3-c]pyridin-3-yl)amino)pyridin-3-yl)imidazo[1,2-a]pyridine-5-carboxamide]
≤ 1 | 1 to 10 | COC(=O)N1CCOc2ncc(Nc3cc4c(cn3)-c3cc(F)c(N5CCCC5=O)cc3OC4C)cc21 (centres unmarked) [Example 150, methyl 7-((9-fluoro-5-methyl-8-(2-oxopyrrolidin-1-yl)-5H-chromeno[4,3-c]pyridin-3-yl)amino)-2,3-dihydro-1H-pyrido[2,3-b][1,4]oxazine-1-carboxylate]
1 to 10 | 10 to 100 | CC1Oc2cc(N3CCCC3=O)c(F)cc2-c2cnc(Nc3cnc4c(c3)N3C(=O)[C@](C)(O)C[C@H]3CO4)cc21 (stereo partly drawn) [Example 204, (6aS,8R)-2-((9-fluoro-5-methyl-8-(2-oxopyrrolidin-1-yl)-5H-chromeno[4,3-c]pyridin-3-yl)amino)-8-hydroxy-8-methyl-6,6a,7,8-tetrahydro-9H-pyrido[2,3-b]pyrrolo[1,2-d][1,4]oxazin-9-one]
1 to 10 | 10 to 100 | CC1Oc2cc(N3CCCC3=O)ccc2-c2cnc(Nc3cncc(NC(=O)c4cn5ccccc5n4)c3)cc21 (centres unmarked) [Example 139, N-(5-((5-methyl-8-(2-oxopyrrolidin-1-yl)-5H-chromeno[4,3-c]pyridin-3-yl)amino)pyridin-3-yl)imidazo[1,2-a]pyridine-2-carboxamide]
1 to 10 | 10 to 100 | CC1Oc2cc(N3CCCC3=O)ccc2-c2cnc(Nc3cncc(NC(=O)C(O)Cc4ccccc4)c3)cc21 (centres unmarked) [Example 134, 2-hydroxy-N-(5-((5-methyl-8-(2-oxopyrrolidin-1-yl)-5H-chromeno[4,3-c]pyridin-3-yl)amino)pyridin-3-yl)-3-phenylpropanamide]
10 to 100 | 10 to 100 | CC1Oc2cc(N3CCCC3=O)ccc2-c2cnc(Nc3cncc(NC(=O)C4Cc5ccccc5C4)c3)cc21 (centres unmarked) [Example 138, N-(5-((5-methyl-8-(2-oxopyrrolidin-1-yl)-5H-chromeno[4,3-c]pyridin-3-yl)amino)pyridin-3-yl)-2,3-dihydro-1H-indene-2-carboxamide]
1 to 10 | 10 to 100 | O=C1NCCN1c1cncc(Nc2cc3c(cn2)-c2cc(F)c(N4CCCC4=O)cc2OC3)c1 [Example 161, 1-(5-((9-fluoro-8-(2-oxopyrrolidin-1-yl)-5H-chromeno[4,3-c]pyridin-3-yl)amino)pyridin-3-yl)imidazolidin-2-one]
1 to 10 | 100 to 1000 | CC1Oc2cc(N3CCCC3=O)ccc2-c2cnc(Nc3cncc(N4CCN(C)S4(=O)=O)c3)cc21 (centres unmarked) [Example 185, 1-(5-methyl-3-((5-(5-methyl-1,1-dioxido-1,2,5-thiadiazolidin-2-yl)pyridin-3-yl)amino)-5H-chromeno[4,3-c]pyridin-8-yl)pyrrolidin-2-one]
1 to 10 | 10 to 100 | CC1Oc2cc(N3CCCC3=O)ccc2-c2cnc(Nc3cncc(NC(=O)c4ccc(NC(=O)/C=C/CN(C)C)cc4)c3)cc21 (centres unmarked) [Example 174, (E)-4-(4-(dimethylamino)but-2-enamido)-N-(5-((5-methyl-8-(2-oxopyrrolidin-1-yl)-5H-chromeno[4,3-c]pyridin-3-yl)amino)pyridin-3-yl)benzamide]
1 to 10 | 1 to 10 | CC1Oc2cc(N3CCCC3=O)ccc2-c2cnc(Nc3cncc(NC(=O)c4ccc5ncoc5c4)c3)cc21 (centres unmarked) [Example 109, N-(5-((5-methyl-8-(2-oxopyrrolidin-1-yl)-5H-chromeno[4,3-c]pyridin-3-yl)amino)pyridin-3-yl)benzo[d]oxazole-6-carboxamide]
1 to 10 | 10 to 100 | CC(CC(=O)Nc1cncc(Nc2cc3c(cn2)-c2ccc(N4CCCC4=O)cc2OC3C)c1)c1ccccc1 (centres unmarked) [Example 132, N-(5-((5-methyl-8-(2-oxopyrrolidin-1-yl)-5H-chromeno[4,3-c]pyridin-3-yl)amino)pyridin-3-yl)-3-phenylbutanamide]
1 to 10 | 10 to 100 | CC1Oc2cc(N3CCCC3=O)ccc2-c2cnc(Nc3cncc(NC(=O)CO)c3)cc21 (centres unmarked) [Example 101, 2-hydroxy-N-(5-((5-methyl-8-(2-oxopyrrolidin-1-yl)-5H-chromeno[4,3-c]pyridin-3-yl)amino)pyridin-3-yl)acetamide]
1 to 10 | 10 to 100 | CC1Oc2cc(N3CCCC3=O)ccc2-c2cnc(Nc3cncc(NC(=O)c4cc5ccccn5n4)c3)cc21 (centres unmarked) [Example 140, N-(5-((5-methyl-8-(2-oxopyrrolidin-1-yl)-5H-chromeno[4,3-c]pyridin-3-yl)amino)pyridin-3-yl)pyrazolo[1,5-a]pyridine-2-carboxamide]
1 to 10 | 10 to 100 | CC1Oc2cc(N3CCCC3=O)ccc2-c2cnc(Nc3cncc(NC(=O)C4CCCO4)c3)cc21 (centres unmarked) [Example 135, N-(5-((5-methyl-8-(2-oxopyrrolidin-1-yl)-5H-chromeno[4,3-c]pyridin-3-yl)amino)pyridin-3-yl)tetrahydrofuran-2-carboxamide]
